The test system of assay [1] is total Aβ peptide production. In words: Inhibition of total Aβ peptide production in APP-transfected cells, ELISA (Example 2). It is filed as cell-based. Particulars: 4 hours in culture, FIG. 1, read-out: concentration for 50 percent inhibition of total Aβ peptide production. The source says: (§1) Cell Lines, Compound Treatments, and ELISAs. Cell lines were Chinese hamster ovary (CHO) and SK-N-SH human neuroblastoma cells stably transfected with the 751- or 695-amino acid splicing variants of APP, respectively, and the neo gene, and human embryonic kidney (HEK) 293 cells carrying the same genes (APP695 plus neo) but with the K595N/M596L (“Swedish”) double mutation of APP. Xia W et al., J Biol Chem 272:7977-7982 (1997); Citron M et al., Proc Natl Acad Sci USA 93:13170-13175 (1996). Cells were grown to confluence in Dulbecco's modified Eagle's medium containing 200 μg/ml G418 (Gibco BRL). Stock concentrations of the (hydroxyethyl)urea compounds of the invention in DMSO were added to media to reach the final concentrations with 1% DMSO. Positive controls contained 1% DMSO alone. […] The reporter antibody was detected using 3,3′,5,5′-tetramethylbenzidine (Pierce), measuring at 455 nm for calculating Aβ levels and at 595 nm for normalization.
(§2) Compound III-20 (shown above) or compound III-24 (identical to III-20 except R4 is L-phenylalanine O-methyl ester) was added over a range of concentrations (0.1-100 μM) to APP-transfected cells in culture as described. […] After 4 hours in culture, supernatants from test and control cultures were assayed by ELISA specific for Aβ peptides, and results were analyzed as percent total or specific Aβ produced compared to control.

The next assay relates to Aβ42 production. In words: Inhibition of Aβ42 production in APP-transfected cells, ELISA (Example 2). It is filed as cell-based. To be noted: 4 hours, compared with total Aβ, FIG. 2.
From the text: as §1, §2

Assay [2] deals with Aβ production in APP751-plus neo-transfected CHO cells. In words: Inhibition of Aβ production in APP751-plus neo-transfected CHO cells, ELISA (Example 3). It is filed as cell-based, Chinese hamster. Particulars: Cricetulus griseus, 4 hours, 0.005 to 100 μM, 1% DMSO. From the text:
Cell Lines, Compound Treatments, and ELISAs. Cell lines were Chinese hamster ovary (CHO) and SK-N-SH human neuroblastoma cells stably transfected with the 751- or 695-amino acid splicing variants of APP, respectively, and the neo gene, and human embryonic kidney (HEK) 293 cells carrying the same genes (APP695 plus neo) but with the K595N/M596L (“Swedish”) double mutation of APP. Xia W et al., J Biol Chem 272:7977-7982 (1997); Citron M et al., Proc Natl Acad Sci USA 93:13170-13175 (1996). Cells were grown to confluence in Dulbecco's modified Eagle's medium containing 200 μg/ml G418 (Gibco BRL). Stock concentrations of the (hydroxyethyl)urea compounds of the invention in DMSO were added to media to reach the final concentrations with 1% DMSO. Positive controls contained 1% DMSO alone. […] The reporter antibody was detected using 3,3′,5,5′-tetramethylbenzidine (Pierce), measuring at 455 nm for calculating Aβ levels and at 595 nm for normalization. […]
Transfected CHO cells were prepared and maintained as described in Example 2. […] Results were plotted as percent control Aβ produced versus (hydroxyethyl)urea compound concentration (μM), and (hydroxyethyl)urea compound concentrations at which production was inhibited by 50 percent (IC50) were determined.
In general terms: In an ELISA, binding on a coated surface is turned into a signal by an enzyme label.

As to `COC(=O)[C@H](CC(C)C)NC(=O)[C@H](CC(C)C)NC(=O)N(Cc1ccccc1)C[C@@H](O)[C@H](Cc1ccccc1)NC(=O)OC(C)(C)C` [FΨFLL], the values for the IC50 in assay [1] and in assay [2] were roughly 1000 nM and 500 nM, respectively. Further, the “inhibitory effect on the production of Aβ42” value in the assay with Aβ42 production was “closely followed the inhibition by compound III-20 of total Aβ production”.

Source of the values: patent US6696488B2, “(Hydroxyethyl)ureas as inhibitors of alzheimer's β-amyloid production” (The Brigham and Women's Hospital, Inc., priority 2000, dated 2004).
